Data as given in PMC4485020 (The Journal of General Physiology, 2015).

Target: hTRPM3 (transient receptor potential melastatin 3) (Homo sapiens, UniProt Q9HCF6)
Format: cell-based

Chain of hTRPM3 (transient receptor potential melastatin 3) (Q9HCF6 whole entry): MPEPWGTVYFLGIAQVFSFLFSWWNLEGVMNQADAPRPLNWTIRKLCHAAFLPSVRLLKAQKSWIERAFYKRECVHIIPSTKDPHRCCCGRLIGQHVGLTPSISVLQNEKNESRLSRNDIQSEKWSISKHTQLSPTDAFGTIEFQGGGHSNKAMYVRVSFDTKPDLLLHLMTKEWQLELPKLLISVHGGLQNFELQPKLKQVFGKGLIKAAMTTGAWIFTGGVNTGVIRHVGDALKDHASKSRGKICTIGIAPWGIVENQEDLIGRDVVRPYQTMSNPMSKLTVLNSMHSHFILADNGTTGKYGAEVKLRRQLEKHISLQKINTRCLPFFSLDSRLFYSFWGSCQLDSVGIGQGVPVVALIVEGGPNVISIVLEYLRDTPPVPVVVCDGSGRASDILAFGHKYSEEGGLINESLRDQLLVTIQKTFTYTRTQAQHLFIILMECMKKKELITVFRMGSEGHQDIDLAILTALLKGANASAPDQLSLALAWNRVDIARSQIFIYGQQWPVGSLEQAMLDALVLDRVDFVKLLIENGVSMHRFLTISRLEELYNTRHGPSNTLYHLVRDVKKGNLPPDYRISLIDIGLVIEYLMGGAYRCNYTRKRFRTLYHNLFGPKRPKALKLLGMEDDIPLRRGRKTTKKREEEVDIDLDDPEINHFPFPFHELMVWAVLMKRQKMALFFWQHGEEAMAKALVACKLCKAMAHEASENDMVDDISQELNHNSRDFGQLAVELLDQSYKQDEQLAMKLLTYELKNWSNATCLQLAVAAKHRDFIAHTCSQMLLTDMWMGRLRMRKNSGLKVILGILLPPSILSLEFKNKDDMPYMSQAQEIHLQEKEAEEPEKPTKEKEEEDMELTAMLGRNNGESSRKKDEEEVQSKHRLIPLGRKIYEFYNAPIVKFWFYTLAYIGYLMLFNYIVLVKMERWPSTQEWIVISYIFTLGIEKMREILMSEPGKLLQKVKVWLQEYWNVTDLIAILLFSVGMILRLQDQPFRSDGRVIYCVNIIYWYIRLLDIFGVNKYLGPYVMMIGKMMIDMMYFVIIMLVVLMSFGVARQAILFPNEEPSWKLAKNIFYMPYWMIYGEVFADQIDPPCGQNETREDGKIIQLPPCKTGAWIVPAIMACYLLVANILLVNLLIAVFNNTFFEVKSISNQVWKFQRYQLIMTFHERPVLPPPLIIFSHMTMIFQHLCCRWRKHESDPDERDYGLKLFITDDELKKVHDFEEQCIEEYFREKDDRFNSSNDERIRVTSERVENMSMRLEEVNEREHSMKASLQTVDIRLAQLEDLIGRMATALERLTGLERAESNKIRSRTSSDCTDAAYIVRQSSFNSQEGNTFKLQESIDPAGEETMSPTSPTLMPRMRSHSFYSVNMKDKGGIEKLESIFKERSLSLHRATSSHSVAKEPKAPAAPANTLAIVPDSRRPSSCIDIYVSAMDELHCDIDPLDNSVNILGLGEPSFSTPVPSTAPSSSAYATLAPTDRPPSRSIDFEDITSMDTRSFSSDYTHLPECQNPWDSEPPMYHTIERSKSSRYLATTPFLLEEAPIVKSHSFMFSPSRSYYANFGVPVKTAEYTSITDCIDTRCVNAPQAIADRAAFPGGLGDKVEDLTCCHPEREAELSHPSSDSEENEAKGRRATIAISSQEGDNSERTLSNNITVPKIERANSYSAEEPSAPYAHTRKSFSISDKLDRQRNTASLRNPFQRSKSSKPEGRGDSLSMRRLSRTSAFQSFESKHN

## CCCCCCCC(=O)OC[C@H](COP(=O)(O)O[C@@H]1[C@H](O)[C@H](O)[C@@H](OP(=O)(O)O)[C@H](OP(=O)(O)O)[C@H]1O)OC(=O)CCCCCCC [diC8 PI(4,5)P2]
  EC50: 18 µM
